{
  "source": "patent US20180177749A1",
  "about": "“USE OF CYP EXPRESSION TO DIRECT THERAPEUTIC INTERVENTION IN CANCER” (REGENTS OF THE UNIVERSITY OF MINNESOTA, priority 2016, published 2018)",
  "key": {"MDA-MB-435/LCC6": {"tested_on": "MDA-MB-435/LCC6", "test": "Measurement of OCR and ECAR, MDA-MB-435/LCC6", "assay_type": "cell-based", "conditions": "20 and 40 μM", "experimental": "(§1) Cells were maintained in growth medium consisting of 10% FBS at 37° C. with 5% CO2 and seeded at 100,000 cells per well in XF24-well cell culture microplates (Seahorse Bioscience, North Billirica, Mass.). Concentrated stocks of HBB were prepared in DMSO. HBB was diluted to 10× working concentration in XF assay medium (a non-buffered medium including 2 mM L-glutamine but no sodium bicarbonate (buffering agent), glucose, or sodium pyruvate). Assays were performed in the XF Extracellular Flux Analyzer (Seahorse Bioscience that measures uptake and excretion of metabolic end products in real time). Oxygen consumption rate (OCR) and extracellular acidification rate (ECAR) were measured using an XF Assay Kit. OCR is reported in pmoles/minute and ECAR in mpH/minute. Before analysis, the cells were switched from culture medium to XF assay medium. After baseline measurements, 75 μl of HBB prepared in assay medium was injected into each well to reach final working concentrations. After addition of HBB, OCR and ECAR were measured at 18-minute intervals. There were 5 replicates was performed for each data point for MCF-7, MDA-MB-231, T47D and MDA-MB-435 cell lines. There were 6 replicates for the studies of the 3-18 and 4-14 cell lines."}, "MCF-7 cells": {"tested_on": "MCF-7 cells", "test": "Measurement of OCR and ECAR (extracellular flux), MCF-7", "assay_type": "cell-based, human", "experimental": "as §1, with “There were 5 replicates was performed for each data point for MCF-7, MDA-MB-231, T47D and MDA-MB-435 cell lines.” left out"}, "[1]": {"conditions": "t-AUCB 2.5, 5 μM, metformin 2.5, 5 mM, HBB 20, 40 μM, rotenone 1 μM"}},
  "data": [
    {"smiles": "CCCCCCNC(=N)NC(=N)NCc1ccccc1", "note": "[HBB, N1-hexyl-N5-benzyl-biguanide]", "values": [
      {"measurement": "reduction of OCR and ECAR", "setting": "MDA-MB-435/LCC6", "value": "significant vs. vehicle"},
      {"measurement": "potency as inhibitor of OCR relative to metformin", "setting": "MCF-7 cells", "value": "more than 250 fold"},
      {"measurement": "extracellular acidification rate (ECAR)", "setting": "MCF-7 cells; [1]", "value": "significant inhibition of ECAR without recovery"},
      {"measurement": "oxygen consumption rate (OCR)", "setting": "MCF-7 cells; [1]", "value": "dose-dependent reduction of OCR"}
    ]}
  ]
}
